The text below walks through data of patent publication US20250034159A1, “INHIBITORS OF EPIDERMAL GROWTH FACTOR RECEPTOR” (ORIC Pharmaceuticals, Inc., priority 2021, published 2025).

The structures appear in SMILES notation.

Assay [1] concerns the target recombinant human EGFR L858R/C797S double mutant protein (Homo sapiens (Human), UniProt P00533, C797S/L858R). Kind of assay: Biological Activity Assay B: biochemical assay against EGFR L858R/C797S protein (EGFR LR/CS). On the procedure: In Row A of a 384-well polypropylene plate, was added 48 μL of DMSO. In wells A1 and A24, were added 12 μL of DMSO. […] To a well in Row A were added 12 μL of each 10 mM test compound stock (100% DMSO). […] The final intermediate dilution plate contained 4×16-point compound serial dilutions in assay buffer. The DMSO concentration was 10%. The intermediate compound dilution plate was transferred to the Bravo and the “5 uL dispense into ARP.pro” protocol was run. To the black low volume assay ready plates, were added 5 μL of 40 uM Phosphosens peptide sensor/4 mM ATP working solution to each well. […] To column 24, was added 10 μL of assay buffer. The final DMSO concentration was 2.5%. […] The plates were sealed with the TopSeal-A Plus plate seals. […] Set for 90 cycles with 120 second interval. […] The slope of each curve was constructed using Dotmatics in each well, and each IC50s was calculated using a 4-parameter fit model.

Assay [2] concerns the target recombinant human EGFR exon 19 deletion/C797S double mutant protein (Homo sapiens (Human), UniProt P00533, C797S/DEL746-750). Put plainly: Biological Activity Assay C: biochemical assay against EGFR exon 19 deletion/C797S protein (EGFR d19/CS). Summed up: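 Compounds were tested as 16-point serial dilutions (final DMSO 2.5%) with a Phosphosens peptide sensor/ATP working solution (40 uM/4 mM). The signal was read kinetically over 90 cycles at 120 s intervals. IC50s came from 4-parameter fits of per-well slopes.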

The test system of assay [3] is Ba/F3_EGFR WT cells. Put plainly: Biological Activity Assay D: BaF3 cell proliferation assay, EGFR wild-type (BaF3 WT). The format is cell-based. The conditions noted are these: Ba/F3 EGFR; Ba/F3_EGFR WT cells, ~72 hours, CellTiter-Glo; read-out: BaF3 WT IC50. (In ATP-based viability assays light output follows the ATP content of the culture.)
The subject of assay [4] is BaF3_EGFR LR/CS cells. Put plainly: Biological Activity Assay D: BaF3 cell proliferation assay, EGFR L858R/C797S mutant (BaF3 LR/CS). The format is cell-based. The conditions noted are these: Ba/F3 EGFR; BaF3_EGFR LR/CS cells, ~72 hours, CellTiter-Glo; read-out: BaF3 LR/CS IC50.
The test system of assay [5] is BaF3_EGFR d19/CS cells. Put plainly: Biological Activity Assay D: BaF3 cell proliferation assay, EGFR exon 19 deletion/C797S (BaF3 d19/CS). The assay is classed as cell-based. The conditions noted are these: Ba/F3 EGFR; BaF3_EGFR d19/CS cells, ~72 hours, CellTiter-Glo; read-out: BaF3 d19/CS IC50.

Chain of recombinant human EGFR L858R/C797S double mutant protein (P00533 25-1210 C797S/L858R): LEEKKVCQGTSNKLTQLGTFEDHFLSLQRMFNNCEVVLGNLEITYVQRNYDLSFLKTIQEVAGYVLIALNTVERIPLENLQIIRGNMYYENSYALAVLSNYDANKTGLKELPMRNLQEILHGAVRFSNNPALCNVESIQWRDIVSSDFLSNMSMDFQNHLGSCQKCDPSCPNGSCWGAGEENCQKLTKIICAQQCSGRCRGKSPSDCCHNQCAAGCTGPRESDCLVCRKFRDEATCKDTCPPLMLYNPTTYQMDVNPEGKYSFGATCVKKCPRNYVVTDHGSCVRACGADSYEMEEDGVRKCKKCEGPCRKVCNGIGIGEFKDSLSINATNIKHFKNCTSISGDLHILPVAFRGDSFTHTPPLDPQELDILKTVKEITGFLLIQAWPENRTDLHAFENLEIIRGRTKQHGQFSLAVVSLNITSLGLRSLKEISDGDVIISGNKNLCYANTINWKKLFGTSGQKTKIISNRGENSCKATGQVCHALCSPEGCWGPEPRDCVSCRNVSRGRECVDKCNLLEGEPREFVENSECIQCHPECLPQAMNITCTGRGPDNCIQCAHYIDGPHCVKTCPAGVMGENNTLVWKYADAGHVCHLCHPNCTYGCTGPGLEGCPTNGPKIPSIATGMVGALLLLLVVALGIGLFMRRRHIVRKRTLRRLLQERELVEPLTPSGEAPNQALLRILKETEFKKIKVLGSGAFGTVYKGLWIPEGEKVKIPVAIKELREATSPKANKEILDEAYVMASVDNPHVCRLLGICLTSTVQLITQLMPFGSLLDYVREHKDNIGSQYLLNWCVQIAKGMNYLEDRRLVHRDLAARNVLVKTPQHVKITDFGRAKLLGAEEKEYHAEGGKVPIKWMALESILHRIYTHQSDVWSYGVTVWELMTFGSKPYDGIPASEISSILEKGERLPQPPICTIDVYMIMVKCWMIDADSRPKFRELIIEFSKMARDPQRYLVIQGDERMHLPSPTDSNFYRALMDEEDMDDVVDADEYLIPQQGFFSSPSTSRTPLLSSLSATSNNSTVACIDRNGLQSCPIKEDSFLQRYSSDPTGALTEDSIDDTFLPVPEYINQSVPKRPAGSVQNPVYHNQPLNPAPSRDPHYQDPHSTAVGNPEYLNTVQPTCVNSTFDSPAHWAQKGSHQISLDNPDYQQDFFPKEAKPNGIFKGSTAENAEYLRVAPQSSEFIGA
Chain of recombinant human EGFR exon 19 deletion/C797S double mutant protein (P00533 other isoform, or with tags, fused parts or gaps C797S/del 1-668/del 746-750 limits assumed): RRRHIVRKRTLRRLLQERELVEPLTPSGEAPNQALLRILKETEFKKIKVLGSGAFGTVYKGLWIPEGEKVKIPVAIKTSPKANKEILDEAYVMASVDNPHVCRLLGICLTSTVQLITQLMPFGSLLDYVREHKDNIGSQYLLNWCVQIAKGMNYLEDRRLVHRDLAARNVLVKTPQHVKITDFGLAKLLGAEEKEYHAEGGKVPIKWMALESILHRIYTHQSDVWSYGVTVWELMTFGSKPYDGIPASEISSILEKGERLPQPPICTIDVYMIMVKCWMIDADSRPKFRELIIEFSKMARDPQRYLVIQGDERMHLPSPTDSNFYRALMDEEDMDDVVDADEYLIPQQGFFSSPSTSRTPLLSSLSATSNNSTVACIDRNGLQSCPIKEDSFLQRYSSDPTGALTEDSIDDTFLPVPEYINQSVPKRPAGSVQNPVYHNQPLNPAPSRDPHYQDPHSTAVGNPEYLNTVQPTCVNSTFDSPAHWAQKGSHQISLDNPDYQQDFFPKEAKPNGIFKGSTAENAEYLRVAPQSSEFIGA

With `OCCCc1nc(-c2ccc(F)cc2)c(-c2ccnc3[nH]c(-c4ccccc4)cc23)s1` [Example 8, 3-[4-(4-Fluorophenyl)-5-(2-phenyl-1H-pyrrolo[2,3-b]pyridin-4-yl)-1,3-thiazol-2-yl]propan-1-01], the IC50 in assay [1] was 1.09 nM; in assay [2], 1.14 nM; in assay [3], 754 nM; in assay [4], 19.6 nM; in assay [5], 19.6 nM.
On to `OCCCn1cc(-c2ncnc3[nH]c(-c4ccccc4)cc23)c(-c2ccc(F)cc2)n1` [Example 9, 3-[3-(4-Fluorophenyl)-4-(6-phenyl-7H-pyrrolo[2,3-d]pyrimidin-4-yl)-1H-pyrazol-1-yl]propan-1-ol], for which the IC50 in assay [1] is 0.099 nM; in assay [2] it was 0.121 nM; in assay [3], 15.4 nM; in assay [4], 0.63 nM; in assay [5], 0.547 nM.
For `CN1CCN(c2ccc(-c3nc4c(-c5cn(CCCO)nc5-c5ccc(F)cc5)ncnc4o3)cc2)CC1` [Example 10, 3-[3-(4-Fluorophenyl)-4-{2-[4-(4-methylpiperazin-1-yl)phenyl][1,3]oxazolo[5,4-d]pyrimidin-7-yl}-1H-pyrazol-1-yl]propan-1-ol], in that order: 0.152 nM, 0.113 nM, 74 nM, 1.63 nM and 1.31 nM.
For `OCCCn1cc(-c2ncnc3oc(-c4ccccc4)cc23)c(-c2ccc(F)cc2)n1` [Example 11, 3-[3-(4-Fluorophenyl)-4-(6-phenylfuro[2,3-d]pyrimidin-4-yl)-1H-pyrazol-1-yl]propan-1-ol], in that order: 0.521 nM, 0.408 nM, 594 nM, 6.91 nM and 5.79 nM.
For `OCCCc1cc(-c2ccnc3[nH]c(-c4ccccc4)cc23)n(-c2ccc(F)cc2)n1` [Example 12, 3-[1-(4-fluorophenyl)-5-{2-phenyl-1H-pyrrolo[2,3-b]pyridin-4-yl}pyrazol-3-yl]propan-1-ol], in that order: 1.08 nM, 0.732 nM, 483 nM, 25.3 nM and 21.4 nM.
Take `CN1CCN(c2ccc(-c3nc4c(-c5cn(CCCO)nc5-c5ccc(F)cc5)ccnc4[nH]3)cc2)CC1` [Example 13, 3-[3-(4-Fluorophenyl)-4-{2-[4-(4-methylpiperazin-1-yl)phenyl]-3H-imidazo[4,5-b]pyridin-7-yl}-1H-pyrazol-1-yl]propan-1-ol]: the IC50 in assay [1] worked out at 0.272 nM; in assay [2] it was 0.173 nM; in assay [3], 255 nM; in assay [4], 4.1 nM; in assay [5], 3.71 nM.
Regarding `CN1CC=C(c2cc3c(-c4cn(CCCO)nc4-c4ccc(F)cc4)ccnc3[nH]2)CC1` [Example 14, 3-{3-(4-Fluorophenyl)-4-[2-(1-methyl-1,2,3,6-tetrahydropyridin-4-yl)-1H-pyrrolo[2,3-b]pyridin-4-yl]-1H-pyrazol-1-yl}propan-1-ol], the IC50 in assay [1] amounted to 7.58 nM; in assay [2] it was 3.3 nM; in assay [3], 1350 nM; in assay [4], 120 nM; in assay [5], 113 nM.
The like results for `CN1CCN(c2ccc(-c3nc4c(-c5cn(CCCO)nc5-c5ccc(F)cc5)ncnc4[nH]3)cc2)CC1` [Example 15, 3-[3-(4-Fluorophenyl)-4-{8-[4-(4-methylpiperazin-1-yl)phenyl]-9H-purin-6-yl}-1H-pyrazol-1-yl]propan-1-ol] were, in that order, 0.27 nM, 0.207 nM, 64.7 nM, 1.02 nM and 0.949 nM.
For `N#Cc1c(-c2ccc(F)cc2)c(-c2ccnc3[nH]c(-c4ccccc4)cc23)nn1CCCO` [Example 16, 4-(4-Fluorophenyl)-1-(3-hydroxypropyl)-3-(2-phenyl-1H-pyrrolo[2,3-b]pyridin-4-yl)-1H-pyrazole-5-carbonitrile], in that order: 1.47 nM, 1.57 nM, 816 nM, 4.38 nM and 3.39 nM.
`OCCCn1cc(-c2ccnc3[nH]c(-c4nnco4)cc23)c(-c2ccc(F)cc2)n1` [Example 17, 3-{3-(4-Fluorophenyl)-4-[2-(1,3,4-oxadiazol-2-yl)-1H-pyrrolo[2,3-b]pyridin-4-yl]-1H-pyrazol-1-yl}propan-1-ol]: the IC50 came to 8.44 nM in assay [1]; 3.46 nM in assay [2]; 1740 nM in assay [3]; 153 nM in assay [4]; 157 nM in assay [5].
For `CN1CCN(c2ccc(-c3cc4c(-c5nn(CCCO)nc5-c5ccc(F)cc5)ccnc4[nH]3)cc2)CC1` [Example 18, 3-[4-(4-Fluorophenyl)-5-{2-[4-(4-methylpiperazin-1-yl)phenyl]-1H-pyrrolo[2,3-b]pyridin-4-yl}-2H-1,2,3-triazol-2-yl]propan-1-ol], in that order: 0.141 nM, 0.0926 nM, 71.4 nM, 2.06 nM and 1.83 nM.
The like results for `CN1CCN(c2ccc(-c3cc4c(-c5cn(CCCO)nc5-c5ccc(F)cc5)ncnc4[nH]3)cc2)CC1` [Example 19, 3-[3-(4-Fluorophenyl)-4-{6-[4-(4-methylpiperazin-1-yl)phenyl]-7H-pyrrolo[2,3-d]pyrimidin-4-yl}-1H-pyrazol-1-yl]propan-1-ol] were, in that order, 0.242 nM, 0.17 nM, 8.67 nM, 0.402 nM and 0.244 nM.
For `CCC(=O)CCn1cc(-c2ncnc3oc(-c4ccccc4)nc23)c(-c2ccc(F)cc2)n1` [Example 20, 1-[3-(4-fluorophenyl)-4-(2-phenyl[1,3]oxazolo[5,4-d]pyrimidin-7-yl)-1H-pyrazol-1-yl]pentan-3-one], in that order: 4.92 nM, 4.19 nM, 5340 nM, 578 nM and 686 nM.
On to `CC(C)(O)CCn1cc(-c2ncnc3oc(-c4ccccc4)nc23)c(-c2ccc(F)cc2)n1` [Example 21, 4-[3-(4-Fluorophenyl)-4-(2-phenyl[1,3]oxazolo[5,4-d]pyrimidin-7-yl)-1H-pyrazol-1-yl]-2-methylbutan-2-ol], for which the IC50 was determined as 5.2 nM in assay [1]; 5.47 nM in assay [2]; 18500 nM in assay [3]; 375 nM in assay [4]; 539 nM in assay [5].
For `CC(C)(O)CCn1ncc(-c2ncnc3oc(-c4ccccc4)nc23)c1-c1ccc(F)cc1` [Example 22, 4-[5-(4-fluorophenyl)-4-(2-phenyl[1,3]oxazolo[5,4-d]pyrimidin-7-yl)-1H-pyrazol-1-yl]-2-methylbutan-2-ol], in that order: 197 nM, 90.9 nM, 20000 nM, 3660 nM and 4100 nM.
For `OCCCCn1nc(-c2ccc(F)cc2)c(-c2ccnc3[nH]c(-c4ccccc4)cc23)n1` [Example 23, 4-[4-(4-Fluorophenyl)-5-(2-phenyl-1H-pyrrolo[2,3-b]pyridin-4-yl)-2H-1,2,3-triazol-2-yl]butan-1-ol], in that order: 1.1 nM, 0.633 nM, 2650 nM, 69.9 nM and 31.9 nM.
As to `OC1(CCn2cc(-c3ncnc4oc(-c5ccccc5)cc34)c(-c3ccc(F)cc3)n2)CC1` [Example 24, 1-{2-[3-(4-fluorophenyl)-4-(6-phenylfuro[2,3-d]pyrimidin-4-yl)-1H-pyrazol-1-yl]ethyl}cyclopropan-1-ol], the IC50 is 1.13 nM in assay [1]; 0.909 nM in assay [2]; 2490 nM in assay [3]; 124 nM in assay [4]; 44.7 nM in assay [5].
The like results for `N#CCn1cc(-c2ncnc3oc(-c4ccccc4)nc23)c(-c2ccc(F)cc2)n1` [Example 25, [3-(4-fluorophenyl)-4-(2-phenyl[1,3]oxazolo[5,4-d]pyrimidin-7-yl)-1H-pyrazol-1-yl]acetonitrile] were, in that order, 13 nM, 7.72 nM, 3490 nM, 726 nM and 810 nM.
The like results for `Fc1ccc(-c2nn(CCCC(F)F)cc2-c2ncnc3oc(-c4ccccc4)nc23)cc1` [Example 26, 7-[1-(4,4-difluorobutyl)-3-(4-fluorophenyl)-1H-pyrazol-4-yl]-2-phenyl[1,3]oxazolo[5,4-d]pyrimidine] were, in that order, 4.06 nM, 4.22 nM, 6410 nM, 562 nM and 486 nM.
